{"source": "patent US10889596B2", "about": "“Beta-amino pateamine a derivatives and methods for treating chronic lymphocytic leukemia” (The Texas A&M University System, priority 2016, dated 2021)", "key": {"primary CLL cells": {"system": "primary CLL cells", "test": "Toxicity/apoptosis in primary CLL cells, annexin V/PI double staining and flow cytometry", "assay_type": "cell-based, human", "conditions": "for influence of human plasma content on potency: RPMI with 10% fetal bovine serum, 10% or 50% patient plasma", "experimental": "(§1) The mechanism of action of DMDAPatA was studied in multiple primary CLL samples (FIG. 3A). […] CLL cells were incubated with DMDAPatA for 4 and 24 h then pulse labeled with [^3H]leucine for 1 h. The amount of [^3H]leucine incorporation into the acid insoluble materials (DNA, RNA and proteins) was measured by scintillation counter. […] This is consistent in 3 samples as quantitated in FIG. 3C. The Bcl-2 level was not affected by DMDAPatA, which is consistent with its longer half-life (FIG. 3C). […] MOMP facilitates the release of cytochrome c from mitochondria to form the apoptosome, which activated caspase-3 and induced apoptosis. As PARP is a substrate of caspase-3, an increase of cleaved PARP in FIG. 3C indicated activation of caspase 3. Apoptosis was measured by annexin V and propodium iodide (PI) double staining followed by flow cytometry.\n(§2) To screen for PatA analogs with greater potency and less plasma protein binding, the toxicity of the analogs to primary CLL cells was measured after 24 of incubation by annexin/PI double staining followed by flow cytometry. This was compared between CLL cells cultured in media supplemented with either 10% FBS or patient plasma to evaluate the plasma influence. Plasma protein binding was assessed using the equilibrium dialysis method (FIG. 7B)."}, "[1]": {"system": "protein synthesis in CLL cells", "test": "[3H]leucine incorporation analysis of protein synthesis in CLL cells", "assay_type": "cell-based, human", "conditions": "CLL cells incubated 4 and 24 h, pulse labeled 1 h", "experimental": "as §1\n(§3) To confirm that the analogs retain the inhibition on protein synthesis, leucine incorporation analysis was performed on the analogs (FIG. 9A) and compared to DMDAPatA and PatA."}, "[2]": {"test": "Plasma protein binding, equilibrium dialysis", "assay_type": "in vitro ADME, human", "experimental": "as §2\nIn this example, the plasma protein binding assay used to provide the plasma protein binding data is described.\nThe assay includes the following steps.\n1. Frozen plasma was thawed and centrifuged at 1120 g for 10 min to remove any particulates. The plasma was decanted, the pH was measured and, if required, was adjusted to pH7.4 with lactic acid.\n2. All compounds were prepared at 10 mM concentration in DMSO. The solutions were carefully vortexed to ensure the compounds dissolved. The 10 mM DMSO solutions were diluted to 500 μM MeOH solutions (5+95 μl).\n3. In a 2 mL 96-well plate (DWP), 1000 μL of plasma was pipetted into each well in Columns 1-4.\n4. 10 μL of the 500 μM compound solution was pipetted to 1000 μL of corresponding plasma. (The final DMSO=0.05%). The solution was capped and carefully vortexed for 5 min.\n5. 200 μL of PBS buffer was added to each receiver well of the dialysis plate (buffer was added to the Receiver first).\n6. The bottom of dialysis plate was capped and turned over to the orange donor side (top) of dialysis plate.\n7. The orange donor side of the dialysis plate was uncapped and 200 μL of the 10 μM drug/plasma samples were transferred from the 2 ml 96-DWP to the corresponding donor wells in the dialysis plate. The orange donor side of the dialysis plate was then capped.\n8. The dialysis plate was placed onto the plate rotator in a 37° C. oven and incubated at 37° C. with a rotation speed 20 rpm for 22 hr.\n9. To a 1 mL 96-DWP, 50 μL/well of the 5 μM drug/plasma samples was pipetted from the 2 mL 96-DWP in triplicate. 50 μL/well of PBS and then 300 μL of ACN/IS was added. The plate was kept at 4° C. This plate serves as the recovery plate.\n10. Two 1 mL 96-DWP were prepared and marked as Donor Plate and Receiver Plate.\n11. The dialysis plate was removed from the 37° C. oven.\n12. The caps were removed from the donor side of the dialysis plate.\n13. 50 μL of samples were pipetted from the donor side of the dialysis plate and added into the 96-DWP Donor Plate. 50 μL of PBS buffer was added into the 96-DWP Donor Plate.\n14. The donor side of the dialysis plate was capped and turned over. Caps were removed from the Receiver side wells. 50 uL of samples were pipetted from the Receiver side of the dialysis plate and added to the 96-DWP Receiver Plate. […]\n23. The samples in the Receiver Plate, Donor Plate, and Recovery Plate were analyzed by LC/MS/MS […]"}, "Bcl-2": {"system": "Bcl-2", "test": "Immunoblot of Bcl-2 level in CLL cells", "assay_type": "cell-based, human", "conditions": "CLL samples", "experimental": "as §1"}, "[3]": {"test": "Stability of DMDAPatA in RPMI, FBS and human plasma", "assay_type": "in vitro ADME", "conditions": "read-out: Half-life time (converted)", "experimental": "These experiments were performed in CLL cells cultured in media supplemented with 10% patient plasma. While mimicking the in vivo environment, we also found this condition beneficial in maintaining cell survival. One potential reason for the reduced potency in the presence of human plasma is stability. To test this theory, the stability of DMDAPatA was studied in FBS and human plasma at two different concentrations."}, "[4]": {"system": "models of human leukemia and melanoma", "conditions": "mice; cited from earlier work"}, "Mcl-1": {"system": "Mcl-1", "test": "Immunoblot of Mcl-1 level in CLL cells", "assay_type": "cell-based, human", "conditions": "CLL samples", "experimental": "as §1, §3"}, "[5]": {"system": "T cells from normal donors", "test": "Cellular toxicity to T cells from normal donors", "assay_type": "cell-based, human", "source_text": "(§4) To predict the therapeutic window of the PatA analogs, their cellular toxicity was compared to CLL cells and to B and T cells from normal donors (FIGS. 8A and 8B). […] PatA was originally identified as a biological probe that inhibits T cell activation, consistent with its toxicity to T cells."}, "[6]": {"system": "P388 murine leukemia cells", "conditions": "read-out: IC50, cytotoxic activity; cited from earlier work"}, "[7]": {"system": "B cells from normal donors", "test": "Cellular toxicity to B cells from normal donors", "assay_type": "cell-based, human", "source_text": "as §4"}, "[8]": {"conditions": "Homo sapiens, CLL cell, primary CLL cells, media with 10% FBS, 24 incubation, read-out: IC50 (μM) 10% FBS"}, "[9]": {"conditions": "Homo sapiens, CLL cell, primary CLL cells, media with 10% patient plasma, 24 incubation, read-out: IC50 (μM) 10% Plasma"}, "[10]": {"conditions": "RPMI medium without serum, Pure RPMI"}, "[11]": {"conditions": "primary CLL cells, media with 10% FBS, 24 incubation, read-out: IC50 (μM) 10% FBS"}, "[12]": {"conditions": "primary CLL cells, media with 10% patient plasma, 24 incubation, read-out: IC50 (μM) 10% Plasma"}}, "note": "Values joined by “and” are separate entries in the source; they are usually repeats but may differ in a detail not shown here. Equal values may be shown once. Read-outs that look alike come from different tables or passages of the source.", "data": [{"compound": "CC(/C=C/C(C)=C/[C@@H]1Cc2nc(cs2)CCCCC(=O)O[C@@H](C)C/C(C)=C/C=C\\C(=O)O1)=C\\CN(C)C", "note": "[DMDAPatA, Des-methyl, des-amino Pateamine A]", "values": [{"measurement": "potency relative to PatA (times less potent)", "setting": "primary CLL cells; CLL cells, media with 10% patient plasma", "result": "about 30 times"}, {"measurement": "IC50 in samples with favorable versus poor prognostic characteristics", "setting": "primary CLL cells; CLL patient samples by prognostic group", "result": "no significant differences"}, {"measurement": "IC50", "setting": "primary CLL cells; Homo sapiens, CLL cell, measured in 13 CLL samples, read-out: average IC50", "result": 2.8, "unit": "µM"}, {"measurement": "IC50", "setting": "primary CLL cells; [8]", "result": 0.65, "unit": "µM"}, {"measurement": "IC50", "setting": "primary CLL cells; [9]", "result": 6.42, "unit": "µM"}, {"measurement": "influence of human plasma content on potency", "setting": "primary CLL cells", "result": "greatly reduced the potency"}, {"measurement": "inhibition of protein synthesis ([3H]leucine incorporation)", "setting": "[1]", "result": "inhibit protein synthesis"}, {"measurement": "recovery in plasma", "setting": "[2]", "result": "low recovery"}, {"measurement": "plasma protein bound", "setting": "[2]; human plasma", "result": "99.7% and > 99%"}, {"measurement": "Bcl-2 level", "setting": "Bcl-2", "result": "not affected"}, {"measurement": "half-life at 1 µM", "setting": "[3]; Fetal Bovine Serum", "result": 16, "unit": "h"}, {"measurement": "half-life at 10 µM", "setting": "[3]; Fetal Bovine Serum", "result": 11.5, "unit": "h"}, {"measurement": "half-life at 1 µM", "setting": "[3]; Human Plasma", "result": 18, "unit": "h"}, {"measurement": "half-life at 10 µM", "setting": "[3]; Human Plasma", "result": 14, "unit": "h"}, {"measurement": "half-life at 1 µM", "setting": "[3]; [10]", "result": 3, "unit": "h"}, {"measurement": "half-life at 10 µM", "setting": "[3]; [10]", "result": 3.2, "unit": "h"}, {"measurement": "activity in xenograft models", "setting": "[4]", "result": "significant tumor reduction"}, {"measurement": "Mcl-1 level", "setting": "Mcl-1", "result": "reduced the short-lived anti-apoptotic protein Mcl-1"}]}, {"compound": "CC(=O)NC1CCc2csc(n2)CC(C=C(C)C=CC(C)=CCN(C)C)OC(=O)C=CC=C(C)CC(C)OC(=O)C1", "note": "[MZ732, N-((12Z,3S,6Z,8E,11S,15R)-3-((1E,3E,5E)-7-(dimethylamino)-2,5-dimethylhepta-1,3,5-trien-1-yl)-9,11-dimethyl-5,13-dioxo-4,12-dioxa-1(2,4)-thiazolacycloheptadecaphane-6,8-dien-15-yl)acetamide]", "values": [{"measurement": "IC50", "setting": "primary CLL cells; [11]", "result": 4.58, "unit": "µM"}, {"measurement": "IC50", "setting": "primary CLL cells; [12]", "result": 6.8, "unit": "µM"}]}, {"compound": "1,1,1-Trichloro-2-methylpropan-2-yl ((12Z,3S,6Z,8E,11S,15R)-3-((1E,3E,5E)-7-(dimethyl amino)-2-methylhepta-1,3,5-trien-1-yl)-9,11-dimethyl-5,13-dioxo-4,12-dioxa-1(2,4)-thiazolacycloheptadecaphane-6,8-dien-15-yl)carbamate [OR-IV-211]", "values": [{"measurement": "IC50", "setting": "primary CLL cells; [11]", "result": 3.5, "unit": "µM"}, {"measurement": "IC50", "setting": "primary CLL cells; [12]", "result": 6.65, "unit": "µM"}]}, {"compound": "CC(/C=C/C(C)=C/[C@@H]1Cc2nc(cs2)CC[C@@H](N)CC(=O)O[C@@H](C)C/C(C)=C/C=C\\C(=O)O1)=C\\CN(C)C", "note": "[OR-IV-234, (12Z,3S,6Z,8E,11S,15R)-15-amino-3-((1E,3E,5E)-7-(dimethylamino)-2,5-dimethylhepta-1,3,5-trien-1-yl)-9,11-dimethyl-4,12-dioxa-1(2,4)-thiazolacycloheptadecaphane-6,8-diene-5,13-dione]", "values": [{"measurement": "IC50", "setting": "primary CLL cells; [11]", "result": 0.33, "unit": "µM"}, {"measurement": "IC50", "setting": "primary CLL cells; [12]", "result": 0.35, "unit": "µM"}, {"measurement": "plasma protein binding (PPB) compared with PatA and DMDAPatA", "setting": "[2]", "result": "much lower plasma protein binding"}, {"measurement": "recovery in plasma", "setting": "[2]", "result": "modest recovery"}]}, {"compound": "CC(/C=C/C(C)=C/[C@@H]1Cc2nc(cs2)[C@@H](C)C[C@@H](N)CC(=O)O[C@@H](C)C/C(C)=C/C=C\\C(=O)O1)=C\\CN(C)C", "note": "[PatA, Pateamine A]", "values": [{"measurement": "IC50", "setting": "primary CLL cells; [8]", "result": 0.2, "unit": "µM"}, {"measurement": "IC50", "setting": "primary CLL cells; [9]", "result": 0.2, "unit": "µM"}, {"measurement": "influence of human plasma content on potency", "setting": "primary CLL cells", "result": "not as influential"}, {"measurement": "toxicity to normal T cells compared with CLL cells", "setting": "[5]", "result": "similarly toxic to CLL cells as well as normal B and T cells"}, {"measurement": "IC50", "setting": "[6]", "result": 0.00027, "unit": "µM"}, {"measurement": "toxicity to normal B cells compared with CLL cells", "setting": "[7]", "result": "similarly toxic to CLL cells as well as normal B and T cells"}]}]}
